Data as given in a melting point compilation (Tetko et al.; mined from patent text by program, amines drawn as free bases though some values may be those of a salt).

| melting point [°C] | SMILES |
| --- | --- |
| 187 to 189 | CC(C)c1ccc(-c2nc(-c3cccc(C(=O)O)c3)co2)cc1 |
| 156 to 157 | CC(=O)OC1OCC[C@@H]1NC(=O)[C@H](Cc1ccccc1)NC(=O)OC(C)(C)C (stereo partly drawn) |
| 198 to 200 | O=C(NCCc1ccc(O)c(O)c1)C12CC3CC(CC(C3)C1)C2 |
| 233 to 236 | COc1cccc(CCN2C(=O)COc3ccc(C=C4SC(=S)NC4=O)cc32)c1 |
| 162 to 163 | COc1cccc(Cn2c(C)c(CC(=O)O)c3cc(OCc4csc(-c5ccccc5)n4)ccc32)c1 |
| 189 to 191 | CC(=O)Nc1cccc2c1C(=O)C1(NC(C)=O)c3ccc(C(C)C)cc3OC21O (stereo not drawn) |
| 279 to 281 | CC(=O)Nc1ccc(CC(=O)N[C@H]2C[C@H](C(=O)O)Nc3cc(Cl)cc(Cl)c32)cc1 (relative stereo) |
| 98 to 100 | COP(=O)(CC(O)c1c(C)cc(C)cc1-c1ccc(F)c(C)c1)OC (stereo not drawn) |
| 46 to 48 | CC(=O)c1ccc2c(c1)N(C)CCC2(C)C |
| 91 to 92 | Cc1ccc(C2c3c(C)c(N)c(C)c(C)c3OC2(C)C)cc1 (stereo not drawn) |
| 236 to 237 | O=[N+]([O-])c1cc(O)cc2cc(-c3ccc(O)cc3)oc12 |
| 162 to 164 | CC(C)(Nc1ccc(Cl)cc1[N+](=O)[O-])C(=O)O |
| 79 to 80 | CC(C)(C)[Si](n1cc(Br)c2ncccc21)(C(C)(C)C)C(C)(C)C |
| 162 to 164 | NC(=O)c1ncc(Cl)cc1F |
| 218 to 219 | O=C(Nc1cc(Cl)cc(Cl)c1)c1ccccc1O |
| 119 to 120 | COc1cccc(-c2oc3ccccc3c(=O)c2OCCCCCCN2CCC(O)CC2)c1 |
| 242 to 243 | CN(C)c1ccc(C=Cc2ccc(S(C)(=O)=O)cc2)cc1 |
| 148 | CC1(O)c2ccc(Cl)cc2CC1(F)S(C)(=O)=O (stereo not drawn) |
| 139 | COC(=O)Oc1ccc(C=Nc2ccc(C#N)cc2)cc1 |
| 216 to 217 | CCC1Oc2ccc(-c3nc4ccccn4c3C)cc2NC1=O (stereo not drawn) |
| 62 to 66 | O=C(O)C(CC(=O)N1CCOCC1)Cc1cccc2ccccc12 (stereo not drawn) |
| 140 | CCCCCCOc1ccc(C(=O)O)cc1Cl |
| 259 to 261 | CCOC(=O)c1nnc2ccc(C#N)cc2c1O |
| 125 to 126 | CCOC(=O)c1cccc(-c2nc(-c3cc(Cl)sc3Cl)cs2)c1 |

| melting point [°C] | SMILES |
| --- | --- |
| 56 to 57 | FC(F)(F)c1ccc(COc2ncncc2Oc2ccccc2)cc1 |
| 45.1 to 46.5 | CCc1ccc(S(=O)(=O)O)cc1 |
| 206 | O=C1NC(=O)C(c2ccccc2)=C1Nc1ccc(OC(F)(F)F)cc1 |
| 155 to 158 | CC(CC(=O)Nc1c(Cl)ccc2nc(N3CCC(NCCCO)C3)ccc12)c1ccccc1 (stereo not drawn) |
| 110 to 111 | COc1ccc(C)cc1-c1cc(F)cc2c1OC(CN)C2 (stereo not drawn) |
| 144 to 145 | COc1ccc(CN(C)C2CCN(c3ccc([N+](=O)[O-])cc3)CC2)cc1 |
| 136 to 138 | CC(Cl)(Cl)C(NC(=O)c1cccc(Cl)c1)NC(=NC#N)Nc1ccccc1F (stereo not drawn) |
| 167 to 170 | O=C1NCCN1c1cn(-c2cccnc2)nc1Cl |
| 175 to 176 | CCOCC(=O)Nc1ncc(Cc2cc(OC)c(OC)c(OC)c2)c(N)n1 |
| 264 to 267 | COc1cc(Nc2c(C#N)cnc3cc(-c4ccc(CO)cc4)ccc23)c(Cl)cc1Cl |
| 275 | Cn1cc(-c2ccc3nnc(C(F)(F)c4ccc5nc(NC(=O)C6CC6)cn5n4)n3c2)cn1 |
| 208 to 210 | COc1cc2c(cc1-c1cccnc1)-c1c(C3=CCOCC3)c3c(n1CC2)C(=O)N(C(C)(C)C)CCCC3 |
| 162 to 164 | COc1cc(C=Cc2ccc(Cl)nn2)cc(OC)c1OC |
| 214 to 215 | CCn1cc2c(n1)c(N)nc1cc(O)ccc12 |
| 82 to 84 | O=C(Cc1ccc(Cl)cc1)C1(c2ccc(Cl)c(Cl)c2)CCC1 |
| 145 to 147 | Nc1nc(NCCC23CC4CC(CC(C4)C2)C3)nc2c1ncn2C1OC(CO)C(O)C1O (stereo not drawn) |
| 90.5 to 91.5 | CC(C)(C)OC(=O)N1CCN(C(=O)OCc2ccccc2)CC1 |
| 172 | CC(C)(C)c1cc(C(C)(CC(=O)NN)c2cc(C(C)(C)C)c(O)c(C(C)(C)C)c2)cc(C(C)(C)C)c1O |
| > 200 | N=c1[nH]c(=N)c2ncn(C3OC(CO)C(O)C3O)c2c(=N)[nH]1 (stereo not drawn) |
| 124 to 126 | CC(=O)Oc1ccc(-c2ccc(C(C)=O)cc2)cc1 |
| 112 to 113 | CC(C)(C)OC1CC(n2cnc3c(Cl)ncnc32)C2CC12COCc1ccccc1 (stereo not drawn) |
| 145 to 150 | O=c1c2ccccc2n(CCCCN2CCC(OC(c3ccccc3)c3ccccc3)CC2)c(=O)n1CCO |
| 148 to 150 | COc1ccc2c(c1)c(CCO)c(C)n2-c1ncnc2cc(Cl)ccc12 |
| 123 to 125 | CC12CCC(O)CC1=CCC1C2C(O)CC2(C)C1CCC21OCCO1 (stereo not drawn) |

| melting point [°C] | SMILES |
| --- | --- |
| 147 to 149 | CCOC(=O)c1c(Nc2cc(F)ccc2[N+](=O)[O-])sc2cc(C)ccc12 |
| 255 | CN(CCN(C)CCN1C(=O)c2cccc3cc4ccccc4c(c23)C1=O)CCN1C(=O)c2cccc3cc4ccccc4c(c23)C1=O |
| 160 to 161 | CC(=O)Nc1nc(CCc2ccc(CC#N)cc2)cs1 |
| 159 to 161 | ClC(Cl)=CCOc1cc(Cl)c(OCCCOc2ccc(-c3nn[nH]n3)cc2)c(Cl)c1 |
| 130 to 131 | COC(=O)C1=C(C(OC)OC)NC(C)=C(C(=O)OCC(C)(C)C)C1c1ccccc1C#N (stereo not drawn) |
| 113 to 116 | CCN(CC)OC(=Nc1c(C(C)C)cccc1C(C)C)Nc1c(C(C)C)cccc1C(C)C |
| 161 to 163 | CCCCCC(CNC(=O)Nc1c(C(C)C)cccc1C(C)C)c1cccc2c1OCO2 (stereo not drawn) |
| 248 | Cc1ccc2c(c1C)N(c1ncnc3cnccc13)CC2 |
| 140 to 143 | CC1CCN(c2cc(F)cc(C(=O)Nc3ccc(OCc4n[nH]c(=O)n4-c4ccccc4)c4ccccc34)c2)CC1 |
| 135 to 136 | O=C(Nc1ccc(Cl)c(C(F)(F)F)c1)N1COc2cc(OCc3ccccc3)ccc21 |
| 77 to 79 | Cc1cccc(C)c1C(N)=NO |
| 128 to 131 | COc1ccc(Nc2cc(C)nc(SCC#N)n2)cc1 |
| 185 to 186 | COc1cc2c(cc1C#N)C1(CO2)C(=O)Nc2ccccc21 (stereo not drawn) |
| 45 to 48 | O=C1N(CCc2noc(C(F)(F)F)n2)c2ccccc2C12COc1cc3c(cc12)OCO3 (stereo not drawn) |
| > 260 | O=C1COCC2=C1C(c1ccc(F)c(I)c1)C1=C(CCS1)N2 (stereo not drawn) |
| 110 to 111 | CCOC(=O)C(=O)/C=C/c1ccc(OCc2nc(-c3ccccc3)oc2C)cc1 |
| 220 to 222 | O=[N+]([O-])c1ccc(Oc2ccc(S(=O)(=O)c3ccc(Oc4ccc([N+](=O)[O-])c(O)c4)cc3)cc2)cc1O |
| 155 to 157 | CCCCCCCCCCS(=O)(=O)c1ccc(O)c(C(=O)Nc2ccc(C(F)(F)F)cc2)c1 |
| 126 | CC(C)N(C)C(=O)COCCCCCCCC[C@H]1C[C@]2(C)[C@@H](O)CC[C@H]2[C@@H]2CCc3cc(O)ccc3[C@@H]12 |
| 62 | O=[N+]([O-])c1cc(Br)cc(F)c1O |
| 157 to 158 | CC(=O)c1ccc(-c2c(C)c(NC(=O)CC(C)(C)C)c(C)c3c2OCC3c2ccc(C(C)C)cc2)s1 (stereo not drawn) |
| 58 to 59 | C=CCC(NC(=O)c1ccc(OC)cc1)C(C)=O (stereo not drawn) |
| 94 to 95 | CCOC(=O)c1cc2cc(Br)ccc2s1 |
| 96 to 98 | COc1cccc2c1cc(C(=O)OCc1ccccc1)n2CC(=O)OC(C)(C)C |

| melting point [°C] | SMILES |
| --- | --- |
| 194 to 196 | COc1ccc(-n2c3c(c(=O)c4cccnc42)CC(C)O3)cc1 (stereo not drawn) |
| 152 | CN1CCC(=C2c3sccc3C=Cn3ccnc32)CC1 |
| 91 to 92 | C=CCN1C(=O)NC(=C(C(=O)OCC)C(=O)OCC)C1=O |
| 190 to 200 | O=C(O)CC(NS(=O)(=O)c1ccc2ccccc2c1)c1ccccc1O (stereo not drawn) |
| 86 to 87 | CC(C)c1nc(CN)n(C)c1Sc1cc(Cl)cc(Cl)c1 |
| 97 to 100 | COC(=O)[C@H](CO)NC(=O)[C@@H]1CCCN1C(=O)OCc1ccccc1 |
| 155 to 156 | CNC(=O)c1cccc(NC(=O)Cc2ccc(F)cc2)c1 |
| 102 | Cc1ccc(S(=O)(=O)N2[C@@H](Cc3nc(C4CC4)no3)CC[C@H]2c2ccc(F)cc2)cc1 (racemic) |
| 211 to 212 | CC(C)c1ccc2c(O)c(C(=O)Nc3ccc(OCC(C)(C)C)c(C#N)c3)sc2n1 |
| 185 to 188 | Cc1ccsc1C(=O)Nc1ccc(-n2nc(C(F)(F)F)cc2C(F)(F)F)cc1 |
| 61 to 61.5 | C#CCOc1cc(N)c(F)cc1Cl |
| 145 to 146 | CC(=O)OCCCCCCOc1ccccc1C(=O)Nc1ccc(C(=O)N2CCCCc3ccccc32)cc1 |
| 221 to 222 | O=C(O)C=C1SC(=Nc2ccc(Cl)c(Cl)c2)N(c2ccc(Cl)c(Cl)c2)C1=O |
| 73 to 76 | BrCCCCOc1ccc(OCCCBr)cc1 |
| 64.2 to 64.7 | CS(=O)(=S)OCc1c(F)c(F)c(F)c(F)c1F (stereo not drawn) |
| 182 to 186 | CC(=O)c1c(C)c2cnc(N)nc2n(C2CCCC2)c1=O |
| 266 | COc1cc2nc(N3CCN(c4ccnc(Cl)n4)CC3)cc(N)c2cc1OC |
| 160 to 161 | CC1=CN(c2ccc(Cl)c(Cl)c2)SC1 |
| 110 | Clc1cccc(N2CCN(CCCCNc3ccc(-c4ccccc4)cn3)CC2)c1Cl |
| 196 to 197 | CCOC(=O)c1c(N)nn(-c2c(Cl)cc(C(F)(F)F)cc2Cl)c1N |
| 150 to 152 | NC(=O)C(F)(F)Cc1c[nH]c([N+](=O)[O-])n1 |

| SMILES | melting point [°C] |
| --- | --- |
| CNC(=O)Oc1ccc(NC(=O)C(Cl)(Cl)Cl)c(C)c1 | 185 to 187 |
| CCOC(=O)N[C@@H]1CC=C[C@@H]2CNC[C@H]21 (racemic) | 120 to 122 |
| N#Cc1nn(-c2c(Cl)cc(C(F)(F)F)cc2Cl)cc1C1(C(F)(F)C(F)(F)C(F)(F)F)CC1 | 95 to 96 |
| O=C(O)C(=O)c1cn(Cc2ccc(F)cc2)c2ccc(OCCc3ccc(F)cc3)cc12 | 171 to 173 |
| CCOC(=O)c1nn(Cc2ccccc2F)c2ncccc12 | 85 |
